According to patent US12486242B2, “Long-acting low-addiction HNK derivative and preparation method therefor” (SHENZHEN RUIJIAN BIOTECHNOLOGY CO., LTD, priority 2020, dated 2025):
“Also recorded” adds a separate entry of the source. Where a name gives a salt, the structure may show the parent alone.

Tests used:
[1] = system: mice; assay: Forced swimming test (FST), immobility time; assay type: in vivo; conditions: for antidepressant effect (immobility time): intragastric administration, mice; for antidepressant effect: dose not given; for course of efficacy within 7 days / effect on the 7th day: intragastric; for course of efficacy within 7 days: 1 hour to 7 days
Description: One hour before the forced swimming test (FST), the mice were transferred to the laboratory. The test was conducted under normal light condition and monitored by a digital camera. During the test, the mice were individually placed in transparent glass cylinders (28.5 cm in height, 14 cm in diameter) filled with 20 cm height of water (23±1° C.). On the first day, the mice were trained for 6 minutes and then removed from the cylinder. On the second day, the mice were administered saline, HNK, Compound 16, Compound C, and Compound D, and after different time periods, their immobility time was tested. During the last 4 minutes of the entire 6-minute swimming test, the static time was recorded through EthoVision XT (Noldus, Netherlands) of Noldus system. The static time was defined as passive floating, that is there was no other movement except the movements necessary to keep the animal's head above the water. After every two to three tests, the water in the cylinders was replaced. After the swimming test, the mice were removed from the water and dried under an infrared lamp.
The mice were given 1 mg (A), 10 mg (B) and 30 mg (C) of HNK and Compund I6 by intragastric administration, respectively, and their immobility time was measured after 1 hour and 7 days. The percentage of immobility time is expressed as mean±SEM. *p<0.05, **p<0.01, compared to base test. Mice of each group was N=8. Saline: saline group; I6: Compound I6 treatment group; HNK: 2R,6R-hydroxynorketamine treatment group.

[2] = system: mice; assay: Behavioral sensitization experiment (spontaneous activity measurement); assay type: in vivo, C57BL/6J mice; conditions: doses 5 mg, 10 mg, 30 mg, intragastric, d1, d7, d15
Description: (§1) Animals: Male C57BL/6J mice of 8-12 weeks old were randomly divided into groups, 10 mice in each group, with body weight of 18-22 g, fed at room temperature (22±1° C.), under humidity of (50±10)%, illumination time from 8:00 to20:00. The mice had free access to food and water, and adapted to the experimental environment for at least 2-3 days before the experiments. All experiments were conducted from 8:00 to 16:00.
1.1 Small animal spontaneous activity measurement: An animal spontaneous activity infrared analysis system consists of a spontaneous activity box, an infrared probe device and a data acquisition system. The size of the spontaneous activity box is 40 cm×40 cm×65 cm, with sound isolation and light isolation, and mounted with a ventilation device. The activity statuses of the animals were recorded by the infrared probe, and the numbers of spontaneous activities of the animals were calculated. In order to test the effect of drugs on spontaneous activities of mice, the mice were randomly divided into 4 groups with 10 mice in each group. The Groups included: vehicle, I6, C, D (5.0, 10.0, 30.0 mg/kg), mor (10 mg/kg). The mice were administrated intragastrically once a day in the morning for 7 consecutive days; after that, the drugs withdrew for 7 days (without any treatment). On the 15th day, mice in each group were given Veh and the drugs (5.0, 10.0, 30.0 mg/kg) by intragastric administration to stimulate. Spontaneous activity of the mice within 1 hour was measured immediately after administration at d1, d7 and d15.
Statistical analysis: Experimental data were expressed as X±SEM. Graphpad software was used for statistical analysis, and t-test was used for comparison between two groups. One-way ANOVA analysis was used for comparison among multiple groups, and then LSD method was used for pairwise comparison.

[3] = system: mice; assay: Position preference (CPP) experiment, three-room system; assay type: in vivo, C57BL/6J mice; conditions: doses 5 mg, 10 mg, 30 mg, intragastric, 6 days training, residence time in white box within 15 min
Description: as §1
1.2 CPP experiment: A three-room CPP system includes black and white boxes (25 cm×25 cm×30 cm) at left and right sides, separated by a middle box (10 cm×25 cm×30 cm). During the experiment, mice were put into the middle box and could freely move to the black and white boxes. A door with the size of 5 cm×5 cm was arranged between the middle box and each of the black and white boxes. The experiment adopted a biased procedure, which had three stages of pre-test, training, and test stages. During the whole experiment, the environmental conditions such as light, color and smell in the boxes were guaranteed to be consistent.
Pre-test stage: On days 1-3, the spacer plates between the boxes were removed, and all mice were put into the middle box after being injected with saline subcutaneously, allowing them to move freely in the boxes for 15 min, once a day for 3 consecutive days. The residence time of the mice in the black and white boxes was respectively recorded to determine the natural preference of the mice. The mice were trained with the non-natural preference box as the companion medicine box. […]
Test stage: on day 10, the spacer plates were removed, and the mice were put into the middle box allowing to move freely. At the same time, the residence time of the mice in the white box within 15 min were recorded.
Position preference was tested by a three-room system. […] After continuous training for 6 days, the test was carried out, and the residence times of the mice within 15 min in the white box were recorded. […]

[4] = Applicant's experimental studies on HNK (efficacy duration, addiction); conditions: in vivo
[5] = system: NMDA receptor; conditions: cited from earlier work
[6] = system: patients; conditions: within 72 hours after a single intravenous injection, 0.5 mg/kg; cited from earlier work

| SMILES | antidepressant effect (immobility time) ([1]; 30 mg) | antidepressant effect [1] | behavioral sensitization effect on mice [2] | position preference effect on mice [3] | antidepressant effect (immobility time) ([1]; 1 mg) | antidepressant effect (immobility time) ([1]; 10 mg) | course of efficacy within 7 days ([1]; 10 mg) | course of efficacy within 7 days ([1]; 30 mg) | also measured |
| --- | --- | --- | --- | --- | --- | --- | --- | --- | --- |
| CN[C@@]1(c2ccccc2Cl)CCC[C@@H](OC(=O)c2ccccc2)C1=O [Compound C] | no antidepressant effect | no antidepressant effect | behavioral sensitizing effect; also recorded: behavioral sensitization effect | induced position preference |  |  |  |  |  |
| N[C@]1(c2ccccc2Cl)CCC[C@H](OC(=O)c2ccc(CN3CCOCC3)cc2)C1=O [Compound D] | no antidepressant effect | no antidepressant effect | behavioral sensitizing effect; also recorded: behavioral sensitization effect | induced position preference |  |  |  |  |  |
| N[C@@]1(c2ccccc2Cl)CCC[C@@H](OC(=O)c2ccoc2)C1=O [Compound I6, (2R,6R)-6-(3-furan)formyloxynorketamine hydrochloride salt] | antidepressant effect |  |  |  | no antidepressant effect | antidepressant effect | substantially did not decrease | substantially did not decrease | difference between the 10 mg and 30 mg treatment groups ([1]; 10 mg vs 30 mg): no significant difference; immobility time during forced swimming ([1]; compared with the HNK-treated group): less immobility time; antidepressant effect at the 7th day after administration ([1]; compared with the HNK-treated group, dose not stated): significant antidepressant effect; behavioral sensitization effect on mice ([2]; hydrochloride salt): no behavioral sensitization effect; also recorded: non-sensitization effect; position preference effect on mice ([3]; hydrochloride salt): no position preference effect; also recorded: non-position preference effect |
| N[C@@]1(c2ccccc2Cl)CCC[C@@H](O)C1=O [HNK, (2R,6R)-6-hydroxydemethylketamine, reference compound] | antidepressant effect |  |  |  | no antidepressant effect | antidepressant effect | decreased rapidly | decayed rapidly | effect on the 7th day ([1]; 10 mg): substantially had no effect; effect on the 7th day ([1]; 30 mg): substantially had no effect; addiction [4]: a certain degree of addiction; duration of efficacy after administration [4]: basically lost activity within one week; activity to NMDA receptor [5]: no activity |
| CNC1(c2ccccc2Cl)CCCCC1=O (centres unmarked) [ketamine] |  |  |  |  |  |  |  |  | patients with Hamilton Depression Scale score decreased by 50% or more [6]: more than 50% |
